Results from paper PMC3230703 (Journal of molecular biology, 2011).

Target: GBSSrtC1 (SAG2603 V/R sortase C1) (Streptococcus agalactiae, UniProt Q8E0S7)
Test: NMR
Format: binding
Settings: irreversible cysteine protease inhibitor; in solution

CC(C)C[C@H](NC(=O)[C@H]1O[C@@H]1C(=O)O)C(=O)NCCCCN=C(N)N [E64] was tested, and the “NMR (results not shown)” value was “inhibitors MTSET and E64 in solution was confirmed by mass spectrometry and NMR, respectively”.
